Experiments:
[1] = molecular target: GABA-A receptor; anion channel; type: functional, tissue-based, Bos taurus, Brain
[2] = molecular target: GABA-A receptor; anion channel; type: organism-based, Bos taurus, Brain

Structure (SMILES) | IC50 [1] [nM] | IC50 [2] [nM]
C[C@]12CC(=O)C3C(CC[C@@H]4C[C@H](O)CC[C@]34C)C1CC(=N)N2 (stereo partly drawn) | 3 | 43
N=c1c2ccccc2c(-c2ccccc2)nn1Cc1cc(O)ns1 | 25 | 160
Cc1cc(-c2ccccc2)nn(CCCC(=O)O)c1=N | – | 2300
N=c1ccc(-c2ccc3c(c2)OCO3)nn1Cc1cc(O)no1 | 6 | 75
N=c1ccc(-c2ccc(Cl)cc2)nn1Cc1cc(O)ns1 | 29 | 150
Cc1cc(-c2ccccc2)nn(Cc2cc(O)no2)c1=N | – | 1000
N=c1ccc(-c2ccccc2)nn1CCCC(=O)O | – | 1200
N=c1ccc(-c2ccc3c(c2)OCO3)nn1CCCC(=O)O | – | 50
N=c1ccc(-c2ccsc2)nn1Cc1cc(O)no1 | – | 1600
N=c1ccc(-c2ccc(Cl)cc2)nn1CCCC(=O)O | – | 280
N=c1c2ccccc2c(-c2ccccc2)nn1Cc1cc(O)no1 | 190 | 120
NCc1cc(O)ns1 | – | 19
N=c1ccc(-c2ccc(Cl)cc2)nn1Cc1cc(O)no1 | 80 | 1200
Cc1cc(-c2ccccc2)c(=N)n(Cc2cc(O)ns2)n1 | 1000 | 6600
N=c1ccc(-c2ccc3c(c2)OCO3)nn1Cc1cc(O)ns1 | 0.76 | 17
Cc1cc(-c2ccccc2)c(=N)n(CCCC(=O)O)n1 | – | 10600
N=c1ccc(-c2ccsc2)nn1CCCC(=O)O | – | 2370
NCc1cc(=O)[nH]o1 [MUSCIMOL] | 135 | 2
O=C1OC=C2CCCNCC12 (stereo not drawn) | – | 56000

— ChEMBL document CHEMBL1125342, “Condensation of muscimol or thiomuscimol with aminopyridazines yields GABA-A antagonists” (J Med Chem, 1992)
